# In patent US10130693B2, “Peptides, combination of peptides and scaffolds for use in immunotherapeutic treatment of various cancers” (Immatics Biotechnologies GmbH, priority 2015, dated 2018):
# Test system: CD8+ T cells
# Assay: In vitro immunogenicity: T-cell priming with aAPCs loaded with HLA-A*24 peptide/MHC and anti-CD28, multimer staining
# Type: cell-based, human
# Details: HLA-A*24 peptides
# Experimental: CD8+ T cells were primed using artificial APCs coated with anti-CD28 mAb and HLA-A*24 in complex with SEQ ID NO: 99 peptide (FIG. 5A, left panel), SEQ ID NO: 119 peptide (FIG. 5B, left panel), SEQ ID NO: 142 peptide (FIG. 5C, left panel) and SEQ ID NO: 174 peptide FIG. 5 (D, left panel), respectively. After three cycles of stimulation, the detection of peptide-reactive cells was performed by 2D multimer staining with A*24/SEQ ID NO: 99 (FIG. 5A), A*24/SEQ ID NO: 119 (FIG. 5B), A*24/SEQ ID NO: 142 (FIG. 5C) or A*24/SEQ ID NO: 174 (FIG. 5D). Right panels (FIGS. 5A,5B,5C and 5D) show control staining of cells stimulated with irrelevant A*24/peptide complexes. Viable singlet cells were gated for CD8+ lymphocytes. Boolean gates helped excluding false-positive events detected with multimers specific for different peptides. Frequencies of specific multimer+ cells among CD8+ lymphocytes are indicated.
# Generation of pMHC/anti-CD28 coated beads, T-cell stimulations and readout was performed in a highly defined in vitro system using four different pMHC molecules per stimulation condition and 8 different pMHC molecules per readout condition.
# The purified co-stimulatory mouse IgG2a anti human CD28 Ab 9.3 (Jung et al., 1987) was chemically biotinylated using Sulfo-N-hydroxysuccinimidobiotin as recommended by the manufacturer (Perbio, Bonn, Germany). Beads used were 5.6 μm diameter streptavidin coated polystyrene particles (Bangs Laboratories, Illinois, USA).
# 800.000 beads/200 μl were coated in 96-well plates in the presence of 4×12.5 ng different biotin-pMHC, washed and 600 ng biotin anti-CD28 were added subsequently in a volume of 200 μl. Stimulations were initiated in 96-well plates by co-incubating 1×10^6 CD8+ T cells with 2×10^5 washed coated beads in 200 μl TCM supplemented with 5 ng/ml IL-12 (PromoCell) for 3 days at 37° C. Half of the medium was then exchanged by fresh TCM supplemented with 80 U/ml IL-2 and incubating was continued for 4 days at 37° C. This stimulation cycle was performed for a total of three times. For the pMHC multimer readout using 8 different pMHC molecules per condition, a two-dimensional combinatorial coding approach was used as previously described (Andersen et al., 2012) with minor modifications encompassing coupling to 5 different fluorochromes. Finally, multimeric analyses were performed by staining the cells with Live/dead near IR dye (Invitrogen, Karlsruhe, Germany), CD8-FITC antibody clone SK1 (BD, Heidelberg, Germany) and fluorescent pMHC multimers. For analysis, a BD LSRII SORP cytometer equipped with appropriate lasers and filters was used. Peptide specific cells were calculated as percentage of total CD8+ cells. Evaluation of multimeric analysis was done using the FlowJo software (Tree Star, Oregon, USA). In vitro priming of specific multimer+CD8+ lymphocytes was detected by comparing to negative control stimulations.
row,Substance,"in vitro immunogenicity, Wells positive [%]"
1,139 (IFGIFPNQF; listed as Homo sapiens) [compound 139],++ (20%-49% = ++)
2,190 (LYSELTETL; listed as Homo sapiens) [compound 190],++++ (>=70% = ++++)
3,350 (KYGNFIDKL; listed as Homo sapiens) [compound 350],+++ (50%-69% = +++)
4,179 (TYIPVGLGRLL; listed as Homo sapiens) [compound 179],+++ (50%-69% = +++)
5,181 (VYPPYLNYL; listed as Homo sapiens) [compound 181],++++ (>=70% = ++++)
6,111 (VYVQILQKL; listed as Homo sapiens) [compound 111],+ (<20% = +)
7,365 (VFIDHPVHL; listed as Homo sapiens) [compound 365],+ (<20% = +)
8,167 (RYGFYYVEF; listed as Homo sapiens) [compound 167],++++ (>=70% = ++++)
9,98 (VFPRLHNVLF; listed as Homo sapiens) [compound 98],+ (<20% = +)
10,161 (KYPDIVQQF; listed as Homo sapiens) [compound 161],+ (<20% = +)
11,353 (TYGKIDLGF; listed as Homo sapiens) [compound 353],+ (<20% = +)
12,122 (EYQARIPEF; listed as Homo sapiens) [compound 122],++ (20%-49% = ++)
13,349 (QYSIISNVF; listed as Homo sapiens) [compound 349],++ (20%-49% = ++)
14,186 (VFTTSSNIF; listed as Homo sapiens) [compound 186],+ (<20% = +)
15,366 (QYLELAHSL; listed as Homo sapiens) [compound 366],++ (20%-49% = ++)

# Same assay, conditions: HLA-A*24 peptides, positive wells after priming
row,Substance,"in vitro immunogenicity, wells"
1,400 (KYLEKYYNL; listed as Homo sapiens) [compound 400],++ (20%-49% = ++)
2,393 (KYIEAIQWI; listed as Homo sapiens) [compound 393],++ (20%-49% = ++)
3,407 (VYGIRLEHF; listed as Homo sapiens) [compound 407],+++ (50%-69% = +++)
4,414 (MYPYIYHVL; listed as Homo sapiens) [compound 414],++ (20%-49% = ++)
5,399 (SYIDVLPEF; listed as Homo sapiens) [compound 399],++ (20%-49% = ++)

# Target: HLA-A*02:01 (Homo sapiens, UniProt P04439, D140Y/D185E/D98H/E176V/E277Q/G131W/G231S/I119V/I121R/I166T/I218V/L300P/L318F/N151K/N90K/P208A/P217A/Q86G/Q94H/R138H/R169H/T345S)
# Assay: MHC binding assay, UV-ligand exchange with beta2m ELISA (exchange yield), HLA-A*02
# Details: binding to HLA-A*02 ranged by peptide exchange yield
# Source text: Candidate peptides for T cell based therapies according to the present invention were further tested for their MHC binding capacity (affinity). The individual peptide-MHC complexes were produced by UV-ligand exchange, where a UV-sensitive peptide is cleaved upon UV-irradiation, and exchanged with the peptide of interest as analyzed. Only peptide candidates that can effectively bind and stabilize the peptide-receptive MHC molecules prevent dissociation of the MHC complexes. To determine the yield of the exchange reaction, an ELISA was performed based on the detection of the light chain (β2m) of stabilized MHC complexes. The assay was performed as generally described in Rodenko et al. (Rodenko et al., 2006).
# 96 well MAXISorp plates (NUNC) were coated over night with 2 ug/ml streptavidin in PBS at room temperature, washed 4× and blocked for 1 h at 37° C. in 2% BSA containing blocking buffer. […] Peptide-MHC monomers of the UV-exchange reaction were diluted 100 fold in blocking buffer. Samples were incubated for 1 h at 37° C., washed four times, incubated with 2 ug/ml HRP conjugated anti-β2m for 1h at 37° C., washed again and detected with TMB solution that is stopped with […]. Absorption was measured at 450 nm. Candidate peptides that show a high exchange yield (preferably higher than 50%, most preferred higher than 75%) are generally preferred for a generation and production of antibodies or fragments thereof, and/or T cell receptors or fragments thereof, as they show sufficient avidity to the MHC molecules and prevent dissociation of the MHC complexes.
row,Substance,Peptide exchange (MHC class I binding score)
1,339 (VLGPGPPPL; listed as Homo sapiens) [compound 339],++ (20%-49% = ++)
2,42 (VLSPFILTL; listed as Homo sapiens) [compound 42],+++ (50%-75% = +++)
3,26 (KVDGVVIQL; listed as Homo sapiens) [compound 26],+++ (50%-75% = +++)

# Test system: HLA-A*24
# Assay: MHC binding assay, UV-ligand exchange with beta2m ELISA (exchange yield), HLA-A*24
# Set-up: species or system human
# Details: binding to HLA-A*24, UV-ligand exchange
# Summary of the method: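 Peptide–MHC complexes formed by UV-ligand exchange: a UV-cleavable peptide is replaced by the test peptide, and only binders keep the complex stable. Exchange yield read by streptavidin-capture ELISA on reactions diluted 100-fold, detected with HRP anti-β2m (2 ug/ml, 1 h, 37° C) and TMB at 450 nm.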
row,Substance,"Peptide exchange (MHC class I binding score, peptide exchange yield)"
1,139 (IFGIFPNQF; listed as Homo sapiens) [compound 139],+++ (50%-75% = +++)
2,190 (LYSELTETL; listed as Homo sapiens) [compound 190],+++ (50%-75% = +++)
3,350 (KYGNFIDKL; listed as Homo sapiens) [compound 350],+++ (50%-75% = +++)
4,179 (TYIPVGLGRLL; listed as Homo sapiens) [compound 179],+++ (50%-75% = +++)
5,181 (VYPPYLNYL; listed as Homo sapiens) [compound 181],+++ (50%-75% = +++)
6,111 (VYVQILQKL; listed as Homo sapiens) [compound 111],+++ (50%-75% = +++)
7,365 (VFIDHPVHL; listed as Homo sapiens) [compound 365],++++ (>=75% = ++++)
8,167 (RYGFYYVEF; listed as Homo sapiens) [compound 167],+++ (50%-75% = +++)
9,98 (VFPRLHNVLF; listed as Homo sapiens) [compound 98],+++ (50%-75% = +++)
10,161 (KYPDIVQQF; listed as Homo sapiens) [compound 161],+++ (50%-75% = +++)
11,353 (TYGKIDLGF; listed as Homo sapiens) [compound 353],+++ (50%-75% = +++)
12,122 (EYQARIPEF; listed as Homo sapiens) [compound 122],+++ (50%-75% = +++)
13,349 (QYSIISNVF; listed as Homo sapiens) [compound 349],+++ (50%-75% = +++)
14,186 (VFTTSSNIF; listed as Homo sapiens) [compound 186],++++ (>=75% = ++++)
15,366 (QYLELAHSL; listed as Homo sapiens) [compound 366],+++ (50%-75% = +++)
